Experimental data taken from ChEMBL document CHEMBL4308826, “Small Molecule Allosteric Modulators of G-Protein-Coupled Receptors: Drug-Target Interactions” (J Med Chem, 2018).

What was measured:
[1] = target: T1, Proteinase-activated receptor 4 (Homo sapiens, UniProt Q96RI0); test: Antagonist activity at human PAR4
T1 sequence (Q96RI0 whole entry): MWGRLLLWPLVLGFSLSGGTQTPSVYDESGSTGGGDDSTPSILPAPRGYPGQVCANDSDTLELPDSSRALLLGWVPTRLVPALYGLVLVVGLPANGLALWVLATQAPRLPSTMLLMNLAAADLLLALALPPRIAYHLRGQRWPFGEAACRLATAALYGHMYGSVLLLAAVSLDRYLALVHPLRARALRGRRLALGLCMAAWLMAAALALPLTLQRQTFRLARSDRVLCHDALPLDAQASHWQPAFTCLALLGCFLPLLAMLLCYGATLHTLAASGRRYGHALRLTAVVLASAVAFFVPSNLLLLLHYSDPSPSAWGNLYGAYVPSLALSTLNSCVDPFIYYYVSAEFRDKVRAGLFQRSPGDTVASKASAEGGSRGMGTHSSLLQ

[2] = target: T2, Proteinase-activated receptor 2 (Homo sapiens, UniProt P55085); test: Antagonist activity at human PAR2
T2 sequence (P55085 whole entry): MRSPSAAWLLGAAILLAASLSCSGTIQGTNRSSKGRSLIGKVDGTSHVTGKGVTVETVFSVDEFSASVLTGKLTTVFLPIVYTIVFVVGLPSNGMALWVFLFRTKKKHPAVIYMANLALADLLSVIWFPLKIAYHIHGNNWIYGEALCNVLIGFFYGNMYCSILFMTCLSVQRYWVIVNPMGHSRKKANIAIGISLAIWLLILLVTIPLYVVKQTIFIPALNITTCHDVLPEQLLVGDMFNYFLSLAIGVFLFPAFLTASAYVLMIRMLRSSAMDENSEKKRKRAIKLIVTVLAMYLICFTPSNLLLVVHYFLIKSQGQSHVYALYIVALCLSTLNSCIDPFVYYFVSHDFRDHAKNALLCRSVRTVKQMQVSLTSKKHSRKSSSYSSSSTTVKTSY

[3] = target: T3, Proteinase-activated receptor 1 (Homo sapiens, UniProt P25116); test: Antagonist activity at human PAR1
T3 sequence (P25116 whole entry): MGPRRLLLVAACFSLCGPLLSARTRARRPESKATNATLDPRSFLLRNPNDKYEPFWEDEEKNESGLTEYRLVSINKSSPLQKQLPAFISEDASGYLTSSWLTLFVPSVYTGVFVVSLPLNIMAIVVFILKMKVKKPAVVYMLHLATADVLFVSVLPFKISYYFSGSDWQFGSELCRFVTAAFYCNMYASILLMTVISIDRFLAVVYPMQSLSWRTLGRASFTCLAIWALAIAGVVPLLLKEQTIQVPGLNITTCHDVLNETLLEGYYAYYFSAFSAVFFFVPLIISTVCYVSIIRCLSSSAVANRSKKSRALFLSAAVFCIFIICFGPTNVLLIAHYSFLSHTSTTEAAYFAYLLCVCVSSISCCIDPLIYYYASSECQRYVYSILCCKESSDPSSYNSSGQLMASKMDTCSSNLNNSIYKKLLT

- IC50 [1]: 380 nM
- IC50 [2]: < 2.5 nM
- IC50 [3]: > 50 µM
SMILES: C[C@@H](C1CCCCC1)n1c(-c2cc3c(cc2Br)OCO3)nc2cc(C(=O)Nc3ccc(C#N)cc3)ccc21
